# Experimental data taken from US4609549A, “Biologically active substance from Islets-Activating Protein” (Kaken Pharmaceutical Co., Ltd., priority 1983, dated 1986).
# Assays:
# [1] = test system: ddY mice; assay: Acute toxicity (LD50), intravenous; type: in vivo; conditions: i.v., ddY mice (male)
# Excerpt: (§1) The control is non-modified IAP.
# [2] = test system: pertussis 18-323 strain (I-phase); assay: Infection prevention test (survival after intracerebral inoculation of live pertussis bacteria); type: in vivo, Bordetella pertussis (ddY mice, male); conditions: two weeks after inoculation
# Procedure: (ii) The IAP processed into toxoid with glutaraldehyde (hereinafter referred to as toxoid-processed IAP) used as the comparative example was prepared in the following precedures. To 0.1M phosphate buffer solution (containing 2M urea, pH 7.0) containing IAP (0.5 mg/ml) adjusted to pH 9.0 by adding 1N sodium hydroxide, was added a 25% aqueous solution of glutaraldehyde so that the final concentration of glutaraldehyde would become 0.05%. The mixed solution was reacted under stirring at room temperature for 22 hours. The resultant solution was then sufficiently dialyzed against a 0.1M phosphate buffer solution (containing 2M urea, pH 7.0) to obtain the toxoid-processed IAP.
# (iii) A toxoid-processed reductively methylated IAP was also similarly prepared by using a reductively methylated IAP solution in place of an IAP solution.
# There were prepared five kinds of the physiological saline solutions containing a dead pertussis vaccine (made by KAKEN PHARMACEUTICAL CO., LTD.), toxoid-processed IAP, toxoid-processed reductively methylated IAP, IAP and reductively methylated IAP, respectively, and 0.1 ml of each of these physiological saline solutions was administered into the peritoneal cavities of the ddY mice (male, 4 weeks old) (13 mice per one group). Two weeks after the administration, the live pertussis 18-323 strain (I-phase) bacteria were inoculated into the encephalon at a rate of 4×10^4cells/animal. […] Used as the control was a group of mice which were treated similarly by giving 0.1 ml of a physiological saline solution alone into the peritoneal cavity.
# [3] = test system: secretion of insulin; assay: Activity of promoting the secretion of insulin; type: in vivo, mammals
# Excerpt: The definition of the activity units used in the present invention is described in Japanese Patent Application Laying Open No. 96392/72 which corresponds to G.B. Patent No. 1,569,046.
# [4] = test system: leukocyte count; assay: Leukocytosis-promoting activity (ΔLP activity) one day after administration; conditions: 12 μg/kg i.v., male Wistar rats
# Procedure: V. Leukocytosis-promoting activity (ΔLP activity)
# Each sample is intravenously injected into male Wister rats (about 150 g body weight) at a rate of 12 μg/kg, and the leukocyte count is measured on a daily basis. The leukocyte increment is determined from the difference in leukocyte count between the sample-administered group and the control group.
# (§2) ΔLP activity=(leukocyte count in sample-administered
# (§3) group)-(leukocyte count in control group)
# The pharmacological activity, acute toxicity, and stability in an alkaline solution, of the resultant products obtained in the Examples were examined in the manners described above.
# as §1
# [5] = test system: Epinephrine hyperglycemia; assay: Stability in methylamine solution: change with time of EpI activity; type: in vivo, male Wistar rats; conditions: 3.44M methylamine solution (pH 9.5)
# Procedure: (§4) Each sample is intravenously injected to the male Wistar rats (about 150 g body weight) at a dose of 12 μg/kg, and after sample injection, epinephrine is subcutaneously injected to the rats under fast on a daily basis. The difference between blood sugar level before epinephrine injection and that one hour after injection is compared with the difference in the control group to thereby determine the EpI activity (%).
# (§5) ΔGC : control group [(blood sugar level after epinephrine injection)-(blood sugar level before injection)]
# (§6) ΔGT : sample-administered group [(blood sugar level after epinephrine injection)-(blood sugar level before injection)] [formula]
# (§7) The stability in an amine-containing alkaline solution of the modified IAP of the present invention and an IAP amidino derivative disclosed in Japanese Patent Application Laid-Open No. 129295/80 (Application No. 35877/79) was examined.
# [6] = test system: Epinephrine hyperglycemia; assay: Epinephrine hyperglycemia inhibitory activity (EpI activity) one day after administration; type: in vivo; conditions: 12 μg/kg i.v., male Wistar rats
# Procedure: IV. Epinephrine hyperglycemia inhibitory activity (EpI activity)
# as §4, §5, §6, §1
# [7] = Stability of IAP (heat, moisture); type: physicochemical
# Procedure: (§8) The powder of IAP obtained by freeze-drying the aqueous dialysed and de-salted solution is non-deliquescent, and white or light brown in colour, and is soluble in water to the extent of 3 to 5 mg/ml at room temperature. […] When IAP is put into aqueous 6N hydrochloric acid solution, a precipitate white in colour separates out. Addition of sodium sulfate, dry ice plus acetone, ethanol, trichloroacetic acid, aqueous solution of zinc chloride, or aqueous solutions containing several other kinds of metal ions to an aqueous solution of IAP at 4° C., causes the aqueous solution to become turbid and a precipitate to settle out. When IAP is put into a mixture of water and chloroform or of water and n-butanol, IAP gathers on the interface of both liquids.
# In addition, when IAP is dissolved into aqueous 0.1M phosphate buffer solution of pH of 7.0 containing sodium chloride at 0.5M and the solution is subjected to dialysis against distilled water as the external liquid, the mixed solution becomes turbid once, however, with the progress of dialysis, the white turbidity disappears completely.
# [8] = test system: leukocyte count; assay: Stability in methylamine solution: change with time of ΔLP activity; type: in vivo, male Wistar rats; conditions: 3.44M methylamine solution (pH 9.5)
# Excerpt: as §2, §3, §7
# [9] = Solubility; type: physicochemical; conditions: pyridine, 2-mercaptoethanol, aqueous sodium dodecylsulfate and cystine
# Procedure: as §8
# [10] = test system: glucose tolerance; assay: Glucose tolerance; type: in vivo; conditions: mammals
# [11] = Isoelectric point; type: physicochemical
# Excerpt: The isoelectric point of IAP determined by the method described in Wringley, C.W., "J. Chromatogr.", 36, 362-372 (1968) is pH 8.9±0.5.
substance,measurement,setting,value
IAP: Islets-Activating Protein obtained by the cultivation of suitable strain(s) of the microorganism Bordetella pertussis (Phase I or II),LD50,[1],0.215 mg/kg
same,Number of animals which survived/total number of animals tested,[2]; 0.04 μg/animal i.p.,6/13
same,Survival rate,[2]; 0.04 μg/animal i.p.,46%
same,Number of animals which survived/total number of animals tested,[2]; 0.2 μg/animal i.p.,8/13
same,Survival rate,[2]; 0.2 μg/animal i.p.,62%
same,Number of animals which survived/total number of animals tested,[2]; 1 μg/animal i.p.,3/13
same,Survival rate,[2]; 1 μg/animal i.p.,23%
same,duration of insulin secretion promoting and glucose tolerance improving actions,[3]; after a single administration,several weeks to several months
same,activity of promoting the secretion of insulin,[3]; in vivo,not less than 193 unit/μg
same,ΔLP activity,[4],140.1 × 10^2 /mm^3
same,EpI activity,[5]; treatment time 0 hr,82.0%
same,EpI activity,[5]; treatment time 24 hr,83.0%
same,EpI activity,[5]; treatment time 48 hr,80.5%
same,EpI activity,[5]; treatment time 72 hr,79.8%
same,EpI activity,[6],85.0%
same,deliquescence of freeze-dried powder,[7],non-deliquescent
same,stability of aqueous solution on heating,[7]; heated to 80° C. or higher,the solution becomes turbid white in colour
same,ΔLP activity,[8]; treatment time 0 hr,144 × 10^2 /mm^3
same,ΔLP activity,[8]; treatment time 24 hr,141 × 10^2 /mm^3
same,ΔLP activity,[8]; treatment time 48 hr,138 × 10^2 /mm^3
same,ΔLP activity,[8]; treatment time 72 hr,139 × 10^2 /mm^3
same,solubility in other solvents,[9],"soluble in pyridine, 2-mercaptoethanol and aqueous solution of sodium dodecylsulfate and of cystine"
same,activity of improving the glucose tolerance,[10],improving the glucose tolerance in mammals
same,isoelectric point,[11],8.9±0.5 pH
